Read-outs that look alike come from different tables or passages of the source.
Legend:
[1] = system: NCl H460 non small cell lung xenografts; experiment: Multiple dose (q7dx3) anti-tumor activity, NCl H460 non small cell lung xenograft
Experimental: Female NCr nude mice were injected intravenously (q7dx3, beginning day 7) via the lateral tail vein. […] Mitomycin C (⋄) was prepared in saline and injected iv (q4dx3) at a dose of 3 mg/kg/dose. Drug-to-lipid ratio was 0.3/1 (w/w). Data points represent median tumor volume (n=6).
(§1) The anti-tumor activity of multiple (q7d3) dose schedules of liposomal vinorelbine was evaluated in several human xenograft tumor models. The goal of this series of studies was to identify the benefits of encapsulation by evaluating a series of doses and determining the therapeutic index in several xenograft models. Models were selected based on the following criteria: (1) activity in the single dose studies, (2) a comprehensive literature review of vinca alkaloid efficacy, (3) a desire to include at least 2-3 models that represent the clinical use of vinorelbine, and (4) a desire to include models with a range of sensitivity to vinorelbine so that improvements resulting from the use of the liposome formulation might be identified. Based on these criteria, MX-1 and MDA-MB-435 breast models, the NCl-H460 NSCLC model and the HT-29 and DLD-1 colon models were chosen.
(§2) Therapeutic index (TI) is a parameter that quantifies the “safety factor” of a particular therapy. TI is a ratio of a toxicity parameter and a biological activity parameter. Therefore, a higher ratio represents a greater potential margin of safety. For these studies, TI is defined as follows: […]
(§3) The minimal effective dose (MED) was set according to NCl activity criteria as the dose resulting in an optimal % T/C of 40. This information was derived from Table 7.

[2] = system: LX-1 small cell lung xenografts; experiment: Single dose anti-tumor activity, LX-1 small cell lung xenograft; format: in vivo
Experimental: Female NCr nude mice were injected intravenously via the lateral tail vein on day 11 post-tumor-implantation with saline (♦), NVB at 25.5 mg/kg (◯), or NVB-TCS at 15.0 mg/kg (●) and 11.0 mg/kg (▪) at a drug-to-lipid ratio of 0.3:1 (w/w). The arrow on the x-axis denotes the day of drug administration. Data points represent mean±SEM (n=7).
Vinorelbine is used clinically in the treatment of advanced NSCLC and metastatic breast cancer.
(§4) Tumor models investigated included RXF393 (renal), MX-1 (breast), LX-1 (small cell lung cancer), PC-3 (prostate), and HT29 (colon). These models were known to be sensitive to vinorelbine. Tumor fragments were implanted subcutaneously in the flank of NCr nu/nu mice. […] Animal weights and tumor size were determined twice weekly.

MX-1 breast xenografts = system: MX-1 breast xenografts
Experimental: Female NCr nude mice were injected intravenously (q7dx3) via the lateral tail vein on days indicated by an asterisk (*). […] Drug-to-lipid ratio was 0.3/1 (w/w). Data points represent median tumor volume (n=6).
as §1, §2, §3

HT29 colon xenografts = experiment: Single dose anti-tumor activity, HT29 colon xenograft; format: in vivo; conditions: HT-29
Experimental: Female NCr nude mice were injected intravenously via the lateral tail vein on day 12 post-tumor-implantation with saline (♦), NVB at 30.0 mg/kg (◯) and 25.5 mg/kg (□), or NVB-TCS at 15.0 mg/kg (●) and 11.0 mg/kg (▪) at a drug-to-lipid ratio of 0.3:1 (w/w). The arrow on the x-axis denotes the day of drug administration. Data points represent mean±SEM (n=7). […]
as §4

[3] = system: MDA-MB-435 breast xenografts
Experimental: Female NCr nude mice were injected intravenously (q7dx3, beginning day 15) via the lateral tail vein. […] Paclitaxel (⋄) was prepared in […]/12.5% ethanol/75% saline and injected iv (q1dx5) at a dose of 15 mg/kg/dose. Drug-to-lipid ratio was 0.3/1 (w/w). Data points represent median tumor volume (n=6).
as §1, §2, §3

Compound: CCC1=C[C@@H]2CN(C1)Cc1c([nH]c3ccccc13)[C@@](C(=O)OC)(c1cc3c(cc1OC)N(C)[C@H]1[C@@](O)(C(=O)OC)[C@H](OC(C)=O)[C@]4(CC)C=CCN5CC[C@]31[C@@H]54)C2 [VRL, 5′-noranhydrovinblastine]
- % T/C (optimal % T/C following final treatment) ([1]; 5 mg/kg i.v. q7dx3): 63%
- DRD (drug related deaths, n = 6) ([1]; 5 mg/kg i.v. q7dx3): 0
- NCI Score ([1]; 5 mg/kg i.v. q7dx3): 0
- T-C (tumor growth delay to 1000 mm^3) ([1]; 5 mg/kg i.v. q7dx3): 2.8
- TF (tumor free animals at the end of study) ([1]; 5 mg/kg i.v. q7dx3, n=6): 0
- % T/C (optimal % T/C following final treatment) ([1]; 10 mg/kg i.v. q7dx3): 45%
- DRD (drug related deaths, n = 6) ([1]; 10 mg/kg i.v. q7dx3): 0
- NCI Score ([1]; 10 mg/kg i.v. q7dx3): 0
- T-C (tumor growth delay to 1000 mm^3) ([1]; 10 mg/kg i.v. q7dx3): 6.2
- TF (tumor free animals at the end of study) ([1]; 10 mg/kg i.v. q7dx3, n=6): 0
- % T/C (optimal % T/C following final treatment) ([1]; 20 mg/kg i.v. q7dx3): 30%
- DRD (drug related deaths, n = 6) ([1]; 20 mg/kg i.v. q7dx3): 0
- NCI Score ([1]; 20 mg/kg i.v. q7dx3): 1
- T-C (tumor growth delay to 1000 mm^3) ([1]; 20 mg/kg i.v. q7dx3): 9.1
- TF (tumor free animals at the end of study) ([1]; 20 mg/kg i.v. q7dx3, n=6): 0
- % T/C (optimal % T/C following final treatment) ([1]; 30 mg/kg i.v. q7dx3): 10%
- DRD (drug related deaths, n = 6) ([1]; 30 mg/kg i.v. q7dx3): 2
- NCI Score ([1]; 30 mg/kg i.v. q7dx3): 1
- T-C (tumor growth delay to 1000 mm^3) ([1]; 30 mg/kg i.v. q7dx3): 19.1
- TF (tumor free animals at the end of study) ([1]; 30 mg/kg i.v. q7dx3, n=6): 0
- % T/C (optimal % T/C following final treatment) ([2]; single i.v. dose 25.5 mg/kg): 23%
- DRD (drug related deaths) ([2]; single i.v. dose 25.5 mg/kg): 0/6
- NCI Score ([2]; single i.v. dose 25.5 mg/kg): 1
- T-C (tumor growth delay to 1000 mm^3) ([2]; single i.v. dose 25.5 mg/kg): 7
- TF (tumor free animals at the end of study) ([2]; single i.v. dose 25.5 mg/kg): 0/6
- % T/C (optimal % T/C following final treatment) ([2]; single i.v. dose 34 mg/kg): Toxic
- DRD (drug related deaths) ([2]; single i.v. dose 34 mg/kg): 7/7
- % T/C (optimal % T/C following final treatment) ([2]; single i.v. dose 45 mg/kg): Toxic
- DRD (drug related deaths) ([2]; single i.v. dose 45 mg/kg): 7/7
- % T/C (optimal % T/C following final treatment) (MX-1 breast xenografts; 5 mg/kg i.v. q7dx3): 100%
- DRD (drug related deaths, n = 6) (MX-1 breast xenografts; 5 mg/kg i.v. q7dx3): 0
- NCI Score (MX-1 breast xenografts; 5 mg/kg i.v. q7dx3): 0
- T-C (tumor growth delay to 1000 mm^3) (MX-1 breast xenografts; 5 mg/kg i.v. q7dx3): 0
- TF (tumor free animals at the end of study) (MX-1 breast xenografts; 5 mg/kg i.v. q7dx3, n=6): 0
- % T/C (optimal % T/C following final treatment) (MX-1 breast xenografts; 10 mg/kg i.v. q7dx3): 38%
- DRD (drug related deaths, n = 6) (MX-1 breast xenografts; 10 mg/kg i.v. q7dx3): 0
- NCI Score (MX-1 breast xenografts; 10 mg/kg i.v. q7dx3): 1
- T-C (tumor growth delay to 1000 mm^3) (MX-1 breast xenografts; 10 mg/kg i.v. q7dx3): 7.3
- TF (tumor free animals at the end of study) (MX-1 breast xenografts; 10 mg/kg i.v. q7dx3, n=6): 0
- % T/C (optimal % T/C following final treatment) (MX-1 breast xenografts; 20 mg/kg i.v. q7dx3): −28%
- DRD (drug related deaths, n = 6) (MX-1 breast xenografts; 20 mg/kg i.v. q7dx3): 0
- NCI Score (MX-1 breast xenografts; 20 mg/kg i.v. q7dx3): 3
- T-C (tumor growth delay to 1000 mm^3) (MX-1 breast xenografts; 20 mg/kg i.v. q7dx3): 28.5
- TF (tumor free animals at the end of study) (MX-1 breast xenografts; 20 mg/kg i.v. q7dx3, n=6): 0
- % T/C (optimal % T/C following final treatment) (HT29 colon xenografts; single i.v. dose 25.5 mg/kg): 35%
- DRD (drug related deaths) (HT29 colon xenografts; single i.v. dose 25.5 mg/kg): 0/7
- MWL (maximum mean weight loss per treatment group) (HT29 colon xenografts; single i.v. dose 25.5 mg/kg): −9.8
- NCI Score (HT29 colon xenografts; single i.v. dose 25.5 mg/kg): 1
- T-C (tumor growth delay to 1000 mm^3) (HT29 colon xenografts; single i.v. dose 25.5 mg/kg): 12
- TF (tumor free animals at the end of study) (HT29 colon xenografts; single i.v. dose 25.5 mg/kg): 1/7
- % T/C (optimal % T/C following final treatment) (HT29 colon xenografts; single i.v. dose 30 mg/kg): 31%
- DRD (drug related deaths) (HT29 colon xenografts; single i.v. dose 30 mg/kg): 0/7
- MWL (maximum mean weight loss per treatment group) (HT29 colon xenografts; single i.v. dose 30 mg/kg): −9.3
- NCI Score (HT29 colon xenografts; single i.v. dose 30 mg/kg): 1
- T-C (tumor growth delay to 1000 mm^3) (HT29 colon xenografts; single i.v. dose 30 mg/kg): 9
- TF (tumor free animals at the end of study) (HT29 colon xenografts; single i.v. dose 30 mg/kg): 1/7
- % T/C (optimal % T/C following final treatment) ([3]; 5 mg/kg i.v. q7dx3): −3%
- DRD (drug related deaths, n = 6) ([3]; 5 mg/kg i.v. q7dx3): 0
- NCI Score ([3]; 5 mg/kg i.v. q7dx3): 2
- T-C (tumor growth delay to 1000 mm^3) ([3]; 5 mg/kg i.v. q7dx3): 37.5
- TF (tumor free animals at the end of study) ([3]; 5 mg/kg i.v. q7dx3, n=6): 0
- % T/C (optimal % T/C following final treatment) ([3]; 10 mg/kg i.v. q7dx3): −100%
- DRD (drug related deaths, n = 6) ([3]; 10 mg/kg i.v. q7dx3): 0
- NCI Score ([3]; 10 mg/kg i.v. q7dx3): 3
- T-C (tumor growth delay to 1000 mm^3) ([3]; 10 mg/kg i.v. q7dx3): >62
- TF (tumor free animals at the end of study) ([3]; 10 mg/kg i.v. q7dx3, n=6): 1
- % T/C (optimal % T/C following final treatment) ([3]; 20 mg/kg i.v. q7dx3): −100%
- DRD (drug related deaths, n = 6) ([3]; 20 mg/kg i.v. q7dx3): 2
- NCI Score ([3]; 20 mg/kg i.v. q7dx3): 4
- T-C (tumor growth delay to 1000 mm^3) ([3]; 20 mg/kg i.v. q7dx3): >62
- TF (tumor free animals at the end of study) ([3]; 20 mg/kg i.v. q7dx3, n=6): 4
- % T/C (optimal % T/C following final treatment) ([3]; 30 mg/kg i.v. q7dx3): −100%
- DRD (drug related deaths, n = 6) ([3]; 30 mg/kg i.v. q7dx3): 1
- NCI Score ([3]; 30 mg/kg i.v. q7dx3): 4
- T-C (tumor growth delay to 1000 mm^3) ([3]; 30 mg/kg i.v. q7dx3): >62
- TF (tumor free animals at the end of study) ([3]; 30 mg/kg i.v. q7dx3, n=6): 3

— patent US20040071768A1, “Compositions and methods for treating cancer” (Inex Pharmaceuticals Corporation, priority 1999, published 2004)
